Earlier results on one compound are cited in patent publication US6723337B1, “Transdermal drug delivery system for anti-inflammatory analgesic agent comprising diclofenac diethylammonium salt, and the manufacturing method thereof” (Samyang Corporation, priority 1997, dated 2004).

The conditions of this data set: composition comprising hydroxy ethyl pyrrolidone or hydroxy ethyl piperidine as absorption enhancer.

With `O=C(O)Cc1ccccc1Nc1c(Cl)cccc1Cl` [diclofenac], the “transdermal penetration of the accumulated diclofenac” value was 180 μg/cm^2·day.
